In ChEMBL document CHEMBL1909046, “DrugMatrix in vitro pharmacology data”:

What was measured:
[1] = DRUGMATRIX: Purinergic P2X radioligand binding (ligand: [3H] alpha, beta-Methylene-ATP); assay type: cell membranes, Oryctolagus cuniculus, New Zealand albino, Urinary bladder, Membrane; conditions: Not Active = under 50% inhibition at 10 µM
[2] = target: T1, Alpha-2A adrenergic receptor (Homo sapiens, UniProt P08913); assay type: cell membranes, Sf9, Membrane; further: in other assays of this panel Not Active means under 50% inhibition at 10 µM
T1 sequence (P08913 whole entry): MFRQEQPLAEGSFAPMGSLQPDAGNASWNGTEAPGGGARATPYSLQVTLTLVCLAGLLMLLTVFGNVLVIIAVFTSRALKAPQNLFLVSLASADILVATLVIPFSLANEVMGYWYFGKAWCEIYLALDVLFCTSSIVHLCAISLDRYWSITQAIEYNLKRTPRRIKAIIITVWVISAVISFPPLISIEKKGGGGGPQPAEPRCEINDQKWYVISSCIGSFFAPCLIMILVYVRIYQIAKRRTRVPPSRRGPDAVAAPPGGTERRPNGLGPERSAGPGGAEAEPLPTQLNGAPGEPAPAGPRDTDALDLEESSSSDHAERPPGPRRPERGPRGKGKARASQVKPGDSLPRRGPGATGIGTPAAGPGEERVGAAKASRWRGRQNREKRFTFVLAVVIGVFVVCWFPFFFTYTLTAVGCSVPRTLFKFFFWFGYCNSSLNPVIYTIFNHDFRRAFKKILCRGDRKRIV

Carbonic anhydrase 2 = Carbonic anhydrase 2 (Homo sapiens, UniProt P00918); experiment: DRUGMATRIX: Carbonic Anhydrase II enzyme inhibition (substrate: 4-Nitrophenyl acetate (4-NPA)); assay type: tissue-based, Erythrocyte; conditions: erythrocyte; Not Active = under 50% inhibition at 10 µM
Cathepsin G = target: T2, Cathepsin G (Homo sapiens, UniProt P08311); assay type: tissue-based; conditions: neutrophil;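 further: inhibition of Cathepsin G enzyme activity, tested on an AMC-conjugated peptide substrate; in other assays of this panel Not Active means under 50% inhibition at 10 µM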
T2 sequence (P08311 whole entry): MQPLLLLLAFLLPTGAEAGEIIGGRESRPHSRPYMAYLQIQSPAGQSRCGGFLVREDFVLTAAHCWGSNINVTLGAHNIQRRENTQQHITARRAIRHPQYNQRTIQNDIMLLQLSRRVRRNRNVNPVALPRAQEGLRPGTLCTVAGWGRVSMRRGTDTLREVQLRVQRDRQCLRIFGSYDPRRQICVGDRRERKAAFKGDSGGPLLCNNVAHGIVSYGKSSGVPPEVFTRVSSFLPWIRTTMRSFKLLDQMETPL

Adenosine receptor A1 = target: T3, Adenosine receptor A1 (Homo sapiens, UniProt P30542); assay type: cell membranes, CHO, Membrane; conditions: cho;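 further: radioligand binding assay at the adenosine A1 receptor, with DPCPX serving as the labelled ligand; in other assays of this panel Not Active means under 50% inhibition at 10 µM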
T3 sequence (P30542 whole entry): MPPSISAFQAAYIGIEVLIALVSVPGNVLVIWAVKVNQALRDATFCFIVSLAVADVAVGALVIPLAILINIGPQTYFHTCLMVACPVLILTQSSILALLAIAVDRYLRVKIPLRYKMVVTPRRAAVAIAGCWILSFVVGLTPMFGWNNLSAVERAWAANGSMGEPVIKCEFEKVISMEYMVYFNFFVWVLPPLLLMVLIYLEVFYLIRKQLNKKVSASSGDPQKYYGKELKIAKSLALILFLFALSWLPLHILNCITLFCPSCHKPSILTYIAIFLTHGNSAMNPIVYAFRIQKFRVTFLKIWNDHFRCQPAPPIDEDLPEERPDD

[3] = DRUGMATRIX: Sigma2 radioligand binding (ligand: [3H] Ifenprodil); assay type: cell membranes, Rattus norvegicus, Wistar, Brain, Membrane; conditions: Not Active = under 50% inhibition at 10 µM
[4] = target: C-C chemokine receptor type 5 (Homo sapiens, UniProt P51681); assay type: cell membranes, Membrane; conditions: hek293; further: in other assays of this panel Not Active means under 50% inhibition at 10 µM
[5] = target: 5-hydroxytryptamine receptor 6 (Homo sapiens, UniProt P50406); assay type: cell membranes, HeLa, Membrane; conditions: hela; further: in other assays of this panel Not Active means under 50% inhibition at 10 µM
[6] = DRUGMATRIX: GABAA, Chloride Channel, TBOB radioligand binding (ligand: [3H] TBOB); assay type: cell membranes, Rattus norvegicus, Wistar, Cerebral cortex, Membrane; conditions: Not Active = under 50% inhibition at 10 µM
[7] = target: Sodium-dependent dopamine transporter (Homo sapiens, UniProt Q01959); experiment: DRUGMATRIX: Dopamine Transporter radioligand binding (ligand: [125I] RTI-55); assay type: cell membranes, CHO-K1, Membrane; conditions: Not Active = under 50% inhibition at 10 µM
[8] = target: Epidermal growth factor receptor (Homo sapiens, UniProt P00533); experiment: DRUGMATRIX: Protein Tyrosine Kinase, EGF Receptor enzyme inhibition (substrate: Poly(Glu:Tyr)); assay type: cell-based, Insect cells; conditions: insect cells, Not Active = under 50% inhibition at 10 µM
Cannabinoid receptor 1 = Cannabinoid receptor 1 (Homo sapiens, UniProt P21554); assay type: cell membranes, Membrane; conditions: chem-1; further: in other assays of this panel Not Active means under 50% inhibition at 10 µM
Substance-P receptor = Substance-P receptor (Homo sapiens, UniProt P25103); assay type: cell membranes, CHO, Membrane; conditions: cho; further: in other assays of this panel Not Active means under 50% inhibition at 10 µM
[9] = DRUGMATRIX: Imidazoline I2, Central radioligand binding (ligand: [3H] Idazoxan); assay type: cell membranes, Rattus norvegicus, Wistar, Cerebral cortex, Membrane; conditions: Not Active = under 50% inhibition at 10 µM
Glucocorticoid receptor = target: T4, Glucocorticoid receptor (Homo sapiens, UniProt P04150); conditions: hela s3; further: in other assays of this panel Not Active means under 50% inhibition at 10 µM
T4 sequence (P04150 whole entry): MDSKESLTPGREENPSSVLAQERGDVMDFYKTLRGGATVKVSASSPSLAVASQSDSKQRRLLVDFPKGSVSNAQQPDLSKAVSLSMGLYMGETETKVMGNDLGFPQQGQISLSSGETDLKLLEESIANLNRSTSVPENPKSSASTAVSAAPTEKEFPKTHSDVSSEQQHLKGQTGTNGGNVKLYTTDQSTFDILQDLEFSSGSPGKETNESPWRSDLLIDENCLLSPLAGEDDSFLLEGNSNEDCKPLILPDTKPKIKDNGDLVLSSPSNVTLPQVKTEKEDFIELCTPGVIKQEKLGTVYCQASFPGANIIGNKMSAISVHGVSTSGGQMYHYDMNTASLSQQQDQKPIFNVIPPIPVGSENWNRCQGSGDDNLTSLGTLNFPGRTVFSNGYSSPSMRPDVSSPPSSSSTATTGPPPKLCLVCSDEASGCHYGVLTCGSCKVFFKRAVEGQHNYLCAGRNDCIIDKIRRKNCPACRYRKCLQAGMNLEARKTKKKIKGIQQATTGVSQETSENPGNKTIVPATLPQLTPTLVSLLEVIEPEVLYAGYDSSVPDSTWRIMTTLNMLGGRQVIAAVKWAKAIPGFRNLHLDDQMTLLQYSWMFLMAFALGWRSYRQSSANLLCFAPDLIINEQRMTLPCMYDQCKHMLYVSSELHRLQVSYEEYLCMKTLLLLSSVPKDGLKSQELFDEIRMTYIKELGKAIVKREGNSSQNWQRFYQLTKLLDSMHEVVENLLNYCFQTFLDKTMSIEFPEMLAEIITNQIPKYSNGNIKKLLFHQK

C-C chemokine receptor type 5, sequence (P51681 whole entry): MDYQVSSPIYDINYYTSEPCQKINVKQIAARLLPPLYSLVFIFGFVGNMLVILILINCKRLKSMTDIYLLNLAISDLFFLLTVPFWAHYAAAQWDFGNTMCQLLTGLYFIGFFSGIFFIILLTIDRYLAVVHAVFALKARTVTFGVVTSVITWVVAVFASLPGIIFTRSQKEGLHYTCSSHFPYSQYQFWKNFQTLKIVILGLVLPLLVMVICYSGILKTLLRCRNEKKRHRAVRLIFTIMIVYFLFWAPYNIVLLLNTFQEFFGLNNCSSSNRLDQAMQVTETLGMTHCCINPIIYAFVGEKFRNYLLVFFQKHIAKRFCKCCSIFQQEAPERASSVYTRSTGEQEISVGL
5-hydroxytryptamine receptor 6, sequence (P50406 whole entry): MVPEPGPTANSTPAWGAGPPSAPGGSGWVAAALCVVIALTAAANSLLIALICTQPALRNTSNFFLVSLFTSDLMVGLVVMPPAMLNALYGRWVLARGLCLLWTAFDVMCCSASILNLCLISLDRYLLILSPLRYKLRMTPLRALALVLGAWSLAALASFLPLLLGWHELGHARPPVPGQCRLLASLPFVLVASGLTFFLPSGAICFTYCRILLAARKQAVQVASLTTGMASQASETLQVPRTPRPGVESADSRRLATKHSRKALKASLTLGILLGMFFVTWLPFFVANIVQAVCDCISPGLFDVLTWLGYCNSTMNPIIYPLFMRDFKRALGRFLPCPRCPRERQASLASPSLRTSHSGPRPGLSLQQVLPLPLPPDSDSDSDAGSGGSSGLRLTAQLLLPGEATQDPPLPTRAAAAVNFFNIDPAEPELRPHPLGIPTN
Substance-P receptor, sequence (P25103 whole entry): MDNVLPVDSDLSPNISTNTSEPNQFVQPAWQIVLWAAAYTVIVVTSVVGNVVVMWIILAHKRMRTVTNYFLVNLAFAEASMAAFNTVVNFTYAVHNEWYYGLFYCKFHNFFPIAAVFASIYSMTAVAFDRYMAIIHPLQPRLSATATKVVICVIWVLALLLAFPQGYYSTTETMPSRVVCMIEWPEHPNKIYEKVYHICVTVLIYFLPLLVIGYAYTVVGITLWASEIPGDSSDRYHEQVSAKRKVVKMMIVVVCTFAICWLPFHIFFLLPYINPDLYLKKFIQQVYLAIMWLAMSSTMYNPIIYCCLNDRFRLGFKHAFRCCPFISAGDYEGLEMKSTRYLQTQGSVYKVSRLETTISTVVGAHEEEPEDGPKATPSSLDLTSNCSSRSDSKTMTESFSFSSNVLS
Cannabinoid receptor 1, sequence (P21554 whole entry): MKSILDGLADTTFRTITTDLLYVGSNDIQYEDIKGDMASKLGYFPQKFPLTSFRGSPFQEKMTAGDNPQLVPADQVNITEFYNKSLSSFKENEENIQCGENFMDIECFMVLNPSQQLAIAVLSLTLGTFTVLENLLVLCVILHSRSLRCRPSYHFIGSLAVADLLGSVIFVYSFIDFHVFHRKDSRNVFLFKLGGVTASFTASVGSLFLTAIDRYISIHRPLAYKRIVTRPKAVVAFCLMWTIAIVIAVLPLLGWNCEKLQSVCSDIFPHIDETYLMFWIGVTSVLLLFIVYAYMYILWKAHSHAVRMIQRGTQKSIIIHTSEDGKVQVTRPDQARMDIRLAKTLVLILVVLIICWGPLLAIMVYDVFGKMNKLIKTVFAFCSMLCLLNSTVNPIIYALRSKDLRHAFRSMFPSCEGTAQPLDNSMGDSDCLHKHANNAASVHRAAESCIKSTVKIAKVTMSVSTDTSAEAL
Sodium-dependent dopamine transporter, sequence (Q01959 whole entry): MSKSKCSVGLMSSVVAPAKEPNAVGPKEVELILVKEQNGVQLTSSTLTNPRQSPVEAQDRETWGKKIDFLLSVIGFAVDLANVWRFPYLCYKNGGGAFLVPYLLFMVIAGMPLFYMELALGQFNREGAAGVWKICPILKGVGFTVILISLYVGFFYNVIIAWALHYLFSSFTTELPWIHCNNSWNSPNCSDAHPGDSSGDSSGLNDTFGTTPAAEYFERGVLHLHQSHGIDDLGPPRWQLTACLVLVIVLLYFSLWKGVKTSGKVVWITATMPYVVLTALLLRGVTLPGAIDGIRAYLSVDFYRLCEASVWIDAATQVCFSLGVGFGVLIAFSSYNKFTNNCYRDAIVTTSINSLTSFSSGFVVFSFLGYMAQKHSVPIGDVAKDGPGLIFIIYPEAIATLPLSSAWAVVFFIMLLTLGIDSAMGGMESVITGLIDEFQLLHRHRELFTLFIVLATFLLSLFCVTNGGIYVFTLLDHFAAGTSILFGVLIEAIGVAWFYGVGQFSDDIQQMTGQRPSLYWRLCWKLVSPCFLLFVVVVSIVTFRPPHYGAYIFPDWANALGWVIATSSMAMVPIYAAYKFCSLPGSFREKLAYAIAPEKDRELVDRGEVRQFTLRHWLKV

Row | Compound | IC50 [1] | Ki [1] | IC50 ([2]; sf9) | IC50 (Carbonic anhydrase 2) | IC50 (Cathepsin G) | IC50 (Adenosine receptor A1) | IC50 [3] | Ki [3] | IC50 [4] | IC50 [5] | IC50 ([7]; cho-k1) | IC50 [8] | IC50 (Cannabinoid receptor 1) | IC50 (Substance-P receptor) | IC50 [9] | Ki [9] | IC50 (Glucocorticoid receptor) | IC50 [6] | Ki [6] | Ki ([2]; sf9) | also measured
1 | C=C(C)[C@@H]1[C@H]2OC(=O)[C@@H]1[C@]1(O)C[C@H]3O[C@]34C(=O)O[C@H]2[C@]14C [PICROTOXININ] | Not Active | Not Active | Not Active | Not Active | Not Active | Not Active | Not Active | Not Active | Not Active | Not Active | Not Active | Not Active | Not Active | Not Active | Not Active | Not Active | Not Active | – | – | – | IC50 ([6]; read-out: IC50): 368 nM; Ki ([6]; read-out: Ki): 330 nM
2 | CN1C(C(=O)Nc2ccccn2)=C(O)c2ccccc2S1(=O)=O [PIROXICAM] | Not Active | Not Active | Not Active | Not Active | Not Active | Not Active | Not Active | Not Active | Not Active | Not Active | Not Active | Not Active | Not Active | Not Active | Not Active | Not Active | Not Active | Not Active | Not Active | – | –
3 | CCC1(c2ccccc2)C(=O)NCNC1=O [PRIMIDONE] | Not Active | Not Active | Not Active | Not Active | Not Active | Not Active | Not Active | Not Active | Not Active | Not Active | Not Active | Not Active | Not Active | Not Active | Not Active | Not Active | Not Active | Not Active | Not Active | – | –
4 | COc1ccc(CN(CCN(C)C)c2ccccn2)cc1 [PYRILAMINE] | Not Active | Not Active | – | Not Active | Not Active | Not Active | Not Active | Not Active | Not Active | Not Active | – | Not Active | Not Active | Not Active | – | – | Not Active | Not Active | Not Active | – | IC50 ([2]; read-out: IC50): 2980 nM; Ki ([2]; read-out: Ki): 1120 nM; IC50 ([7]; read-out: IC50): 879 nM; Ki ([7]; read-out: Ki): 699 nM; IC50 ([9]; read-out: IC50): 3340 nM; Ki ([9]; read-out: Ki): 2230 nM
5 | CARBOPLATIN | Not Active | Not Active | Not Active | Not Active | Not Active | Not Active | Not Active | Not Active | Not Active | Not Active | Not Active | Not Active | Not Active | Not Active | Not Active | Not Active | Not Active | Not Active | Not Active | Not Active | Ki (Carbonic anhydrase 2): Not Active; Ki (Cathepsin G): Not Active; Ki (Adenosine receptor A1): Not Active; Ki [4]: Not Active; Ki [5]: Not Active; Ki ([7]; cho-k1): Not Active; Ki [8]: Not Active; Ki (Cannabinoid receptor 1): Not Active; Ki (Substance-P receptor): Not Active; Ki (Glucocorticoid receptor): Not Active
6 | CISPLATIN | Not Active | Not Active | Not Active | Not Active | Not Active | Not Active | Not Active | Not Active | Not Active | Not Active | Not Active | – | Not Active | Not Active | Not Active | Not Active | Not Active | Not Active | Not Active | Not Active | Ki (Carbonic anhydrase 2): Not Active; Ki (Cathepsin G): Not Active; Ki (Adenosine receptor A1): Not Active; Ki [4]: Not Active; Ki [5]: Not Active; Ki ([7]; cho-k1): Not Active; IC50 ([8]; read-out: IC50): 2620 nM; Ki (Cannabinoid receptor 1): Not Active; Ki (Substance-P receptor): Not Active; Ki (Glucocorticoid receptor): Not Active
7 | OXALIPLATIN | Not Active | Not Active | Not Active | Not Active | Not Active | Not Active | Not Active | Not Active | Not Active | Not Active | Not Active | Not Active | Not Active | Not Active | Not Active | Not Active | Not Active | Not Active | Not Active | Not Active | Ki (Carbonic anhydrase 2): Not Active; Ki (Cathepsin G): Not Active; Ki (Adenosine receptor A1): Not Active; Ki [4]: Not Active; Ki [5]: Not Active; Ki ([7]; cho-k1): Not Active; Ki [8]: Not Active; Ki (Cannabinoid receptor 1): Not Active; Ki (Substance-P receptor): Not Active; Ki (Glucocorticoid receptor): Not Active
